Where two headings read alike, the source gives them in different places.
Experiments:
[1] = system: peripheral blast cells from AML patients; assay: Microarray gene expression analysis, AML patients treated with MGCD0103 in vivo; parameters: species or system human; conditions: for Fold of Induction of CCL4 transcription / Fold of Induction of CCL7 transcription / Fold of Induction of IFNG transcription / Fold of Induction of THBS1 transcription: AML Patient A (clinical response)
Procedure: Whole blood from either consenting healthy volunteers or consenting patients was centrifuged at 2500 rpm for 10 minutes at ambient temperature in a Sorvall RT-7 centrifuge (Mandel Scientific Co., Guelph, Ontario). Plasma was removed and buffy coat was collected. Five volumes of Erythrocyte Lysis Buffer (EL) (Qiagen Canada Inc., Mississauga, Ontario) were added into buffy coat. Buffy coat was incubated on ice for 20 minutes before it was centrifuged at 400 g for 10 minutes at 4° C. Supernatant was removed and buffy coat was washed twice with EL buffer and re-centrifuged. Buffy coat was resuspended in RPMI media and cells were counted with trypan blue exclusion. To isolate PBMCs, buffy coat cells were centrifuged over Lymphoprep (Axis-Shield, 1114544), and any remaining erythrocytes in the sample were lysed by treatment with EL lysis buffer (Qiagen, 79217). The cell pellets are washed and then re-suspended in RPMI containing 10% FBS.
(§1) Biological analysis was performed using Biointerpreter software.
(§2) Human patients with either solid tumors or leukemia/MDS diseases were enrolled in phase I studies with consensus forms. MGCD0103 were dosed into patients orally every other day (day 1, day 3, day 5 […]). Blood samples were withdrawled by using the Vacutainer sodium-heparin blood collection tubes (Becton Dickinson Laboratories, Franklin Lakes, N.J.) and shipped to the test site within 24 hours on ice-pack. Baseline samples were drawn immediately prior to the first drug dose, while the 24 hour samples were drawn at 24 hours post the first drug dose. The 48 hours samples were drawn at 48 hours post the first dose. For the 1 week samples, blood was drawn 72 hours after day 5 dose (3 accumulated doses during week 1).

[2] = system: IL-6; assay: IL-6 protein levels in plasma by ELISA; assay type: in vivo, human; conditions: leukemia patients, Day 8, ELISA (FIG. 17)
Procedure: FIG. 17 Induction of plasma IL-6 from leukemia patients from treated with MGCD0103 at Day 8, analyzed by ELISA assays.
Patient plasma samples at […] were analyzed by ELISA
as §2
Blood from patients was centrifuged at 2500 RPM for 10 min at 10° C. Plasma was separated and frozen until used. Plasma was thawed, and spun again at 2500 RPM for 10 min at 10° C. The level of IL-6 was determined by ELISA (eBioscience, San Diego, Calif.), following the manufacturer's instructions. IL-6 concentration (pg/ml) in the samples was calculated from a standard curve generated by using standard IL-6 also provided in the kit. […] All the data was calculated and plotted using Excel.

[3] = system: human colon HCT15 cells; assay: Microarray gene expression analysis, HCT15 cells in vitro; assay type: cell-based; conditions: HCT-15, HCT15 in vitro
Procedure: Human cancer cell lines were from American Type Culture Collection (Manassas, Va.) and were all cultured following the vendor's instructions.
as §1

[4] = system: human H460 tumors in mice; assay: Microarray gene expression analysis, implanted H460 tumors in vivo
Procedure: as §1
Human non-small cell lung carcinoma NSCLC-H460 cells (2 million) were injected subcutaneously in the animal flank and allowed to form solid tumors. Tumor fragments were passaged in animals for a minimum of three times before their use. Tumor fragments (about 30 mg) were implanted subcutaneously through a small surgical incision under general anesthesia to Balb/cA female nude mice (6-8 weeks old). Recipient animals were treated with either vehicle (0.1 N HCl) or MGCD0103 (2HBr salt, in 0.1 N HCl) 100 mg/kg orally. Tumors were harvested after one dose of either 6 hour or 24 hours post administration of vehicle or MGCD0103. Each experimental group contained 3 animals. Tumor tissues were deposited in RNAlater (Qiagen, Missisauga Ontario) for total RNA extraction.

[5] = system: RPMI-8226 myeloma cells; assay: RT-PCR of MT3 transcription in RPMI-8226 cells; assay type: cell-based, human; conditions: 16 h, semi-quantitative RT-PCR (FIG. 2)
Procedure: RNA was extracted from 8×10^6 cells using the Qiagen RNeasy Mini kit (cat#74106, Qiagen, Missisauga Ont.) following the manufacturer's instructions. RT reaction was performed using the Expand Reverse Transcriptase kit from Roche (Cat#1 785 834 Roche Applied Biosciences, Laval, Que) with 1 μg total RNA together with 1 μl oligo(dT) primer (cat#y01212, Invitrogen-Canada, Burlington, Ont). cDNA was synthesized using an Eppendorf Mastercycler gradient PCR apparatus (Brinkmann Instruments Canada LTD., Mississauga, Ontario), using a two cycle protocol. For the 1st cycle reaction mixture (0.5 μl H2O, 4 μl of 5× Buffer, 2 μl DTT, 2 ul of 10 mM dNTPs, 0.5 μl RNAsin (cat#N211B, Promega, Fisher Scientific, Whitby, Ont.) and […] of the Expand Reverse Transcriptase (Cat#1785834, Roche, Laval, Quebec)) was incubated at 65° C. for 10 minutes and then set on ice. A second cycle was performed at 42° C. for 1 hour. The resulting cDNA products were kept at 4° C. until used.
One ul of the resulting cDNA was used for every amplification reaction with 18.9 ul H2O, 1.25 ul of 10 mM dNTPs, 0.5 ul of each primer pair, 2.5 ul of 10× Buffer. The PCR reaction was carried out in an Eppendorf Mastercycler gradient. The sequences of the primers used for the amplification of selected biomarkers, as well as the details of the PCR reaction cycles are featured below. […]

Nc1ccccc1NC(=O)c1ccc(CNc2nccc(-c3cccnc3)n2)cc1 [MGCD0103]
Fold of Induction of CCL4 transcription ([1]; 24 hr): 1.4 fold
Fold of Induction of CCL7 transcription ([1]; 24 hr): 2.3 fold
Fold of Induction of IFNG transcription ([1]; 24 hr): 1.4 fold
Fold of Induction of THBS1 transcription ([1]; 24 hr): 1.4 fold
Fold of Induction of CCL4 transcription ([1]; day 8): 12.2 fold
Fold of Induction of CCL7 transcription ([1]; day 8): 7.3 fold
Fold of Induction of IFNG transcription ([1]; day 8): 2.5 fold
Fold of Induction of THBS1 transcription ([1]; day 8): 2.8 fold
Induction of transcription of a subset of proapoptotic proteins ([1]; peripheral blast cells, D8 vs 0 h, AML Patient A (response), in contrast to Patients B, C, D (FIG. 11)): Induction
induction of transcription of the Table 5 genes (CCL7, CCL4, IFNG, THBS1) ([1]; three other AML patients without response): <= 1 fold
induction of plasma IL-6 [2]: induction
fold induction at 1 µM ([3]; probe A_23_P16523, read-out: Fold Induction of GDF15 transcription): 4.18
fold induction at 1 µM ([3]; probe A_23_P41344, read-out: Fold Induction of EREG transcription): 4.62
fold induction at 1 µM ([3]; probe A_23_P52336, read-out: Fold Induction of UNC5B transcription): 5.7
fold induction at 1 µM ([3]; probe A_23_P94754, read-out: Fold Induction of TNFSF15 transcription): 4.11
fold induction at 1 µM ([3]; probe A_23_P114947, read-out: Fold Induction of RGS2 transcription): 2.75
fold induction at 1 µM ([3]; probe A_23_P142506, read-out: Fold Induction of GADD45B transcription): 3.1
fold induction at 1 µM ([3]; probe A_23_P149019, read-out: Fold Induction of BAI2 transcription): 5.13
fold induction at 1 µM ([3]; probe A_23_P151046, read-out: Fold Induction of KLRC1 transcription): 9.29
fold induction at 1 µM ([3]; probe A_23_P259071, read-out: Fold Induction of AREG transcription): 9.39
fold induction at 1 µM ([3]; probe A_23_P315273, read-out: Fold Induction of MT3 transcription): 7.65
fold induction at 1 µM ([3]; probe A_24_P5856, read-out: Fold Induction of TNFSF9 transcription): 2.96
fold induction at 1 µM ([3]; probe A_24_P217520, read-out: Fold Induction of EREG transcription): 4.14
Fold induction of CDKN1C transcription [4]: 3.1 fold
Fold induction of CXCL14 transcription [4]: 3.4 fold
Fold induction of IER3 transcription [4]: 3.2 fold
Fold induction of KRTHA2 transcription [4]: 2.6 fold
Fold induction of MT3 transcription [4]: 2.2 fold
Fold induction of PROM1 transcription [4]: 3.1 fold
Fold induction of SNIP transcription [4]: 2.8 fold
Fold induction of SOD2 transcription [4]: 2.8 fold
Fold induction of TNF transcription [4]: 2.8 fold
Dose-dependent induction of MT3 transcription [5]: Dose-dependent induction

— patent publication US20070292351A1, “Assay for efficacy of histone deacetylase inhibitors” (Methylgene, Inc., priority 2006, published 2007)
